According to patent US6979686B1, “Substituted pyrazoles as p38 kinase inhibitors” (Pharmacia Corporation, priority 2001, dated 2005):
Read-outs that look alike come from different tables or passages of the source. Blank lines part the entries; values can stand above or below the molecule they belong to.

Assays:
[1] = system: TNF-α, U937 human histiocytic lymphoma cell line; experiment: LPS stimulation of TNF production by U937 cells; format: cell-based; settings: for U937 Cell % inhib @ conc. (uM) / U937 Cell % inhib @ conc.: @ 1.0 uM; for inhibition at 1 µM: U-937, @ 1.0 uM, read-out: U937 Cell % inhib @ conc.
Procedure: Maintenance and Differentiation of the U937 Human Histiocytic Lymphoma Cell Line:
Fifty million cells in 100 ml media were induced to terminal monocytic differentiation by 24 hour incubation with 20 ng/ml phorbol 12-myristate 13-acetate (Sigma). The cells were washed by centrifugation (200×g for 5 min) and resuspended in 100 ml fresh medium. After 24-48 hours, the cells were harvested, centrifuged, and resuspended in culture medium at 2 million cells/ml.
LPS Stimulation of TNF Production by U937 Cells:
Compounds were prepared as 10 mM stock solutions in DMSO and diluted in culture medium to yield a final DMSO concentration of 0.1% in the cell assay. LPS (E coli, 100 ng/ml final concentration) was then added at a volume of 0.02 ml. After 4 hour incubation at 37° C., the amount of TNF-α released in the culture medium was quantitated by ELISA. Inhibitory potency is expressed as IC50 (μM).
In vitro whole cell assay for measuring the ability of the compounds to inhibit TNF production in human U937 cells stimulated with LPS are shown in the column identified as: • “U937 Cell IC50, uM or % inhib @ conc., (uM)”

[2] = target: T1, human p38 kinase alpha (Homo sapiens, UniProt Q16539); experiment: p38 kinase in vitro assay, phosphorylation of biotinylated PHAS-I with 32P-ATP; format: biochemical
T1 construct: GST (N, cleaved yes); made in house; host or cells: E. coli DH10B

[3] = TNF production, U937 cells stimulated with LPS
[4] = Homo sapiens, U-937, TNF production in human U937 cells stimulated with LPS, read-out: U937 Cell IC50
[5] = in vitro P38-alpha kinase inhibition, read-out: P38 alpha kinase IC50
[6] = Homo sapiens, TNF production, U937 cells stimulated with LPS
[7] = TNF production, human U937 cells stimulated with LPS, read-out: U937 Cell IC50
[8] = Homo sapiens, U-937, TNF production, human U937 cells stimulated with LPS, read-out: U937 Cell IC50
[9] = Table 5, LPS-stimulated U937 cells, TNF-α, read-out: U937 Cell Assay IC50
[10] = in vitro P38-alpha kinase, read-out: P38 alpha kinase IC50
[11] = Homo sapiens, TNF production, LPS-stimulated U937 cells
[12] = TNF production in human U937 cells stimulated with LPS
[13] = Table 8, 1% DMSO, read-out: p38α Kinase Assay IC50

T1 sequence (Q16539 whole entry): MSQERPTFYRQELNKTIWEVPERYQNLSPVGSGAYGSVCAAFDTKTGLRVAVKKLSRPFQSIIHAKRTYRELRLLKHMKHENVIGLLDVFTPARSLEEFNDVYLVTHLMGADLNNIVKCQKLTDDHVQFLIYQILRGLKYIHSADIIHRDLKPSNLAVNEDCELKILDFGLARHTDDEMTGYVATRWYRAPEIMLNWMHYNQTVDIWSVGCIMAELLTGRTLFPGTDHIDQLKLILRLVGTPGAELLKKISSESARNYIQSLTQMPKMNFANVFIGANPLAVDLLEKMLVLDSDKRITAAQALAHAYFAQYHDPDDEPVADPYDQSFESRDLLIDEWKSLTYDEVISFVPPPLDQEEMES

SMILES: COc1ccc(S(=O)(=O)NC(Cc2ccccc2)c2[nH]nc(-c3ccc(F)cc3)c2-c2ccncc2)cc1OC (stereo not shown) [Example B-0722]
IC50 [1, 4]: > 1 µM
IC50 [2, 5]: 70 nM

SMILES: CNC(=O)CCC(NC(=O)C(C)C)c1[nH]nc(-c2ccc(F)cc2)c1-c1ccncc1 (stereo not shown) [Example B-0863]
inhibition at 1 µM [1, 6]: 25%
IC50 [2, 5]: 810 nM

SMILES: Cc1[nH]nc(-c2ccc(N(C)C)cc2)c1-c1ccncc1 [Example A-37]
IC50 [1, 9]: 0.099 µM

SMILES: C=Cc1ccc(S(=O)(=O)NCc2[nH]nc(-c3ccc(F)cc3)c2-c2ccncc2)cc1 [Example B-0140]
U937 Cell % inhib @ conc. [1, 3]: 9.0% @
P38 alpha kinase % inhib @ conc. ([2]; @ 10.0 uM): 67% @

SMILES: CC(NC(=O)N1CCCC1)c1[nH]nc(-c2ccc(F)cc2)c1-c1ccncc1 (stereo not shown) [Example B-0581]
IC50 [1, 4]: 2.17 µM
IC50 [2, 5]: 260 nM

SMILES: Cc1ccc(S(=O)(=O)NC(Cc2ccccc2)C(=O)NCCCc2[nH]nc(-c3ccc(F)cc3)c2-c2ccncc2)cc1 (stereo not shown) [Example B-1188]
U937 Cell % inhib @ conc. (uM) [1, 3]: 36.0% @

SMILES: CC1(C)C2CCC1(CS(=O)(=O)NCc1[nH]nc(-c3ccc(F)cc3)c1-c1ccncc1)C(=O)C2 (stereo not shown) [Example B-0226]
inhibition at 1 µM [1, 6]: 20%

SMILES: O=C(NCc1[nH]nc(-c2ccc(F)cc2)c1-c1ccncc1)c1ccc(F)cc1C(F)(F)F [Example B-0062]
U937 Cell % inhib @ conc. [1, 3]: 36.0% @

SMILES: C[C@@H](NS(=O)(=O)c1ccc2ccccc2c1)c1[nH]nc(-c2ccc(F)cc2)c1-c1ccncc1 [Example B-0475]
U937 Cell % inhib @ conc. (uM) [1, 12]: 74.0% @

SMILES: Cc1cccc(C(=O)NCc2[nH]nc(-c3ccc(F)cc3)c2-c2ccncc2)c1 [Example B-0290]
inhibition at 1 µM [1, 6]: 44%

SMILES: CC1(C)C2CCC1(CS(=O)(=O)NCc1[nH]nc(-c3ccc(F)cc3)c1-c1ccncc1)C(=O)C2 (stereo not shown) [Example B-0227]
U937 Cell % inhib @ conc. [1, 3]: 1.0% @

SMILES: O=C(NC(Cc1ccccc1)c1[nH]nc(-c2ccc(F)cc2)c1-c1ccncc1)c1ccncc1 (stereo not shown) [Example B-0854]
U937 Cell % inhib @ conc. (uM) [1, 3]: 25.0% @

SMILES: O=C(NC(Cc1ccccc1)c1[nH]nc(-c2ccc(F)cc2)c1-c1ccncc1)c1ccccn1 (stereo not shown) [Example B-0855]
U937 Cell % inhib @ conc. (uM) [1, 3]: 8.0% @

SMILES: C[C@@H](NC(=O)N[C@H](C)c1[nH]nc(-c2ccc(F)cc2)c1-c1ccncc1)c1ccccc1 [Example B-0417]
U937 Cell % inhib @ conc. (uM) [1, 12]: 28.0% @

SMILES: O=C(NCc1[nH]nc(-c2ccc(F)cc2)c1-c1ccncc1)c1cccs1 [Example B-0303]
U937 Cell % inhib @ conc. [1, 3]: 10.0% @

SMILES: Cc1cccc(C(=O)NCc2[nH]nc(-c3ccc(F)cc3)c2-c2ccncc2)c1 [Example B-0067]
U937 Cell % inhib @ conc. [1, 3]: 1.0% @

SMILES: Cc1ccc(-c2n[nH]c(C)c2-c2ccncc2)c(C)c1 [Example A-31]
IC50 [1, 9]: 1.05 µM

SMILES: CC(NC(=O)c1ccc(Cl)cc1Cl)c1[nH]nc(-c2ccc(F)cc2)c1-c1ccncc1 (stereo not shown) [Example B-0693]
U937 Cell % inhib @ conc. (uM) [1, 12]: 28.0% @

SMILES: COc1ccc(CC(=O)N[C@H](C)c2[nH]nc(-c3ccc(F)cc3)c2-c2ccncc2)cc1OC [Example B-0371]
inhibition at 1 µM [1, 6]: 28%

SMILES: O=C(NCCCc1[nH]nc(-c2ccc(F)cc2)c1-c1ccncc1)NCc1ccccn1 [Example B-1304]
inhibition at 1 µM [1, 11]: 10%

SMILES: CC(NC(=O)c1cc2ccccc2s1)c1[nH]nc(-c2ccc(F)cc2)c1-c1ccncc1 (stereo not shown) [Example B-0673]
IC50 [2, 5]: 8540 nM

SMILES: O=S(=O)(C=Cc1ccccc1)NC(Cc1ccccc1)c1[nH]nc(-c2ccc(F)cc2)c1-c1ccncc1 (stereo not shown) [Example B-0755]
IC50 [2, 5]: 2300 nM

SMILES: CN1CCN(Cc2n[nH]c(-c3ccc(F)cc3)c2-c2ccncc2)CC1 [A-313, Step 3, 1-[[5-(4-fluorophenyl)-4-(4-pyridinyl)-1H-pyrazol-3-yl]methyl]-4-methylpiperazine]
IC50 [2, 13]: 36 nM

SMILES: O=C(O)CCC(=O)N1CCN(c2n[nH]c(-c3ccc(Cl)cc3)c2-c2ccncc2)CC1 [A-321 (dihydrate), 4-[5-(4-chlorophenyl)-4-(4-pyridinyl)-1H-pyrazol-3-yl]-γ-oxo-1-piperazinebutanoic acid, dihydrate]
IC50 [2, 13]: 770 nM

SMILES: CC(NS(=O)(=O)c1cc(Cl)c(Cl)s1)c1[nH]nc(-c2ccc(F)cc2)c1-c1ccncc1 (stereo not shown) [Example B-0629]
IC50 [2, 5]: 200 nM

SMILES: COc1ccc(CC(=O)NC(Cc2ccccc2)c2[nH]nc(-c3ccc(F)cc3)c2-c2ccncc2)cc1 (stereo not shown) [Example B-0848]
IC50 [2, 5]: 1560 nM

SMILES: Cc1cc(C)c(C(=O)NC(C)c2[nH]nc(-c3ccc(F)cc3)c2-c2ccncc2)c(C)c1 (stereo not shown) [Example B-0682]
IC50 [2, 5]: 760 nM

SMILES: Cc1n[nH]c(-c2ccccc2F)c1-c1ccncc1 [Example A-40]
IC50 ([2]; activated human p38 kinase alpha, PHAS-I substrate, 50 μM unlabeled ATP, read-out: p38 kinase IC50): 1300 nM

The next lines start with results.

P38 alpha kinase % inhib @ conc. (uM) ([2]; @ 1.0 uM): 51.0% @
SMILES: O=C(NCCc1[nH]nc(-c2ccc(F)cc2)c1-c1ccncc1)Nc1ccc(Br)cc1 [Example B-0938]
U937 Cell % inhib @ conc. (uM) [1, 3]: 29.0% @

IC50 [2, 5]: 710 nM
SMILES: N#Cc1cccc(C(=O)NCCc2[nH]nc(-c3ccc(F)cc3)c2-c2ccncc2)c1 [Example B-1127]
inhibition at 1 µM [1, 6]: 7%

IC50 [1, 7]: > 10 µM
P38 alpha kinase % inhib @ conc. ([2]; @ 100.0 uM): 55.0% @
SMILES: Cc1c(-c2ccncc2)c(-c2ccc(F)cc2)nn1CC(=O)N(CC(C)C)CC(C)C [Example B-2372]

IC50 [1, 8]: > 1 µM
IC50 [2, 5]: 620 nM
SMILES: CNC(=O)CCC(NC(=O)c1cccc(Br)c1)c1[nH]nc(-c2ccc(F)cc2)c1-c1ccncc1 (stereo not shown) [Example B-0867]

IC50 [1, 7]: 0.79 µM
P38 alpha kinase % inhib @ conc. (uM) ([2]; @ 1.0 uM): 71.0% @
SMILES: COc1cccc(C(=O)NCCCc2[nH]nc(-c3ccc(F)cc3)c2-c2ccncc2)c1 [Example B-1185]

IC50 [1, 8]: > 1 µM
IC50 [2, 10]: 1690 nM
SMILES: O=S(=O)(c1cccc(Br)c1)N1CCC(c2[nH]nc(-c3ccc(F)cc3)c2-c2ccncc2)CC1 [Example B-1466]

IC50 [2, 10]: 850 nM
SMILES: O=S(=O)(c1ccc(Cl)cc1)N1CCC(c2[nH]nc(-c3ccc(F)cc3)c2-c2ccncc2)CC1 [Example B-1471]
inhibition at 1 µM [1, 11]: 25%

IC50 ([1]; TNF production, U937 cells stimulated with LPS, read-out: U937 Cell IC50, uM or % inhib @ conc. (uM): IC50): > 10 µM
P38 alpha kinase IC50, uM or % inhib @ conc. (uM): % inhib ([2]; @ 10.0 uM): 85.0% @
SMILES: Cc1ccc(NC(=O)Cn2nc(-c3ccc(F)cc3)c(-c3ccncc3)c2C)cc1 [Example B-2423]

IC50 [2, 5]: 480 nM
SMILES: O=S(=O)(NCCc1[nH]nc(-c2ccc(F)cc2)c1-c1ccncc1)c1ccc2ccccc2c1 [Example B-1068]
inhibition at 1 µM [1, 6]: 24%

IC50 [1, 8]: > 1 µM
SMILES: O=C(NCCCc1[nH]nc(-c2ccc(F)cc2)c1-c1ccncc1)NCCc1c[nH]cn1 [Example B-1306]

P38 alpha kinase % inhib @ conc. (uM) ([2]; @ 1.0 uM): 69.0% @
SMILES: O=C(NCCCc1[nH]nc(-c2ccc(F)cc2)c1-c1ccncc1)c1ccccn1 [Example B-1184]

IC50 [2, 5]: 1710 nM
SMILES: O=C(NCCc1[nH]nc(-c2ccc(F)cc2)c1-c1ccncc1)c1cc(C(F)(F)F)ccc1F [Example B-1134]

IC50 [2, 10]: 1920 nM
SMILES: CCOCCCNC(=O)Cn1nc(-c2ccc(F)cc2)c(-c2ccncc2)c1C [Example B-2273]

P38 alpha kinase % inhib @ conc. (uM) ([2]; @ 1.0 uM): 68.0% @
SMILES: COc1cccc(NC(=O)NCCc2[nH]nc(-c3ccc(F)cc3)c2-c2ccncc2)c1 [Example B-0948]

IC50 [2, 10]: < 100 nM
SMILES: C#CCOC(=O)N1CCC(c2[nH]nc(-c3ccc(F)cc3)c2-c2ccncc2)CC1 [Example B-1427]

IC50 [2, 10]: 190 nM
SMILES: C=CCOC(=O)N1CCC(c2[nH]nc(-c3ccc(F)cc3)c2-c2ccncc2)CC1 [Example B-1426]

P38 alpha kinase IC50, uM or % inhib @ conc. (uM): % inhib ([2]; @ 10.0 uM): 78.0% @
SMILES: Cc1c(-c2ccncc2)c(-c2ccc(F)cc2)nn1CC(=O)N1CCSC1c1ccco1 (stereo not shown) [Example B-2409]

IC50 [2, 10]: 35 nM
SMILES: O=C(NCCCc1[nH]nc(-c2ccc(F)cc2)c1-c1ccncc1)NCCN1CCCCC1 [Example B-1313]

IC50 [2, 10]: 240 nM
SMILES: CN(C)c1cccc2c(S(=O)(=O)NCCCc3[nH]nc(-c4ccc(F)cc4)c3-c3ccncc3)cccc12 [Example B-1249]

P38 alpha kinase % inhib @ conc. ([2]; @ 10.0 uM): 63.0% @
SMILES: Cc1c(-c2ccncc2)c(-c2ccc(F)cc2)nn1CC(=O)N1CCSC1 [Example B-2383]

P38 alpha kinase IC50, uM or % inhib @ conc. (uM): % inhib ([2]; @ 10.0 uM): 87.0% @
SMILES: Cc1c(-c2ccncc2)c(-c2ccc(F)cc2)nn1CC(=O)Nc1ccccc1C(=O)NC1CCCCC1 [Example B-2451]

IC50 [2, 10]: 400 nM
SMILES: O=C(c1cccc(C(F)(F)F)c1F)N1CCC(c2[nH]nc(-c3ccc(F)cc3)c2-c2ccncc2)CC1 [Example B-1407]

IC50 [2, 5]: 2220 nM
SMILES: O=C(NCCc1[nH]nc(-c2ccc(F)cc2)c1-c1ccncc1)c1cccc(Cl)c1 [Example B-1153]

P38 alpha kinase % inhib @ conc. (uM) ([2]; @ 1.0 uM): 83.0% @
SMILES: CC(Oc1ccccc1)C(=O)NCCCc1[nH]nc(-c2ccc(F)cc2)c1-c1ccncc1 (stereo not shown) [Example B-1186]

P38 alpha kinase % inhib @ conc. ([2]; @ 1.0 uM): 88.0% @
SMILES: Cc1cccc(C)c1NC(=O)NCCCc1[nH]nc(-c2ccc(F)cc2)c1-c1ccncc1 [Example B-1216]

IC50 [2, 10]: 97 nM
SMILES: O=C(NCCCc1[nH]nc(-c2ccc(F)cc2)c1-c1ccncc1)c1cc(C(F)(F)F)ccc1F [Example B-1335]
